Source: patent US8951752B2, “N-demethyase genes and uses thereof” (priority 2011, dated 2015)
Values joined by “and” are separate entries in the source; they are usually repeats but may differ in a detail not shown here. Equal values may be shown once. Read-outs that look alike come from different tables or passages of the source.

What was measured:
NdmB-His6 = target: T1, NdmB-His6 (Pseudomonas putida, UniProt H9N290); assay: Methylxanthine N-demethylase assay and kinetics, NdmB-His6 with His6-NdmD; type: biochemical, Pseudomonas putida CBB5; settings: for N-demethylase activity: NdmB; for Km: 30° C., pH 7.5, ∞ where no activity
T1 construct: made in house; host or cells: E. coli BL21(DE3)
T1 sequence (H9N290 1-355): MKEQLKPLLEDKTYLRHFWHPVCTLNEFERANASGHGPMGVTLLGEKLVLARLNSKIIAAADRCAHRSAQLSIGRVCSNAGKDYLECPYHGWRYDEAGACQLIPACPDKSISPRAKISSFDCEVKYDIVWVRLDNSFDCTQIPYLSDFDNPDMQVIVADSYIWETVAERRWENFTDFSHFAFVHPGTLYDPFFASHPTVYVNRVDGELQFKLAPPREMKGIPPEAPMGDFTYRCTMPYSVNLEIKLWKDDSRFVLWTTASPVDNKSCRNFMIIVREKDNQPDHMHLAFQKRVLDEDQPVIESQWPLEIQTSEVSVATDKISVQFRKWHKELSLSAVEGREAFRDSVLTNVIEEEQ
Description: (§1) Methylxanthine N-demethylase activity assay contained, in 1-ml total volume, 0.5 mM methylxanthine, 1 mM NADH, 50 μM Fe(NH4)2(SO4)2, and an appropriate amount of NdmA-His6 or NdmB-His6 (7.4 μg-2.5 mg protein depending on substrate specificity) in 50 mM KPi buffer (pH 7.5). Approximately 4 U of partially purified reductase, prepared as described previously (Summers et al., 2011) or 59 U of purified His6-NdmD was added to reaction mixture. Catalase from bovine liver (4,000 U) was also added to reactions containing His6-NdmD. The reaction mixture was incubated at 30° C. with 300 rpm shaking on an incubating microplate shaker (VWR, Radnor, Pa.). Periodically, a small aliquot was sampled from the reaction mixture and mixed with equal volume of acetonitrile for quantifying concentrations of methylxanthines and N-demethylated products by HPLC. One unit of N-demethylase activity was defined as the consumption of one […] methylxanthine per minute.
(§2) Apparent kinetic parameters of NdmA-His6 and NdmB-His6 were determined by measuring the initial rate of disappearance (vo) of methylxanthines in 50 mM KPi buffer (pH 7.5) at 30° C. The initial substrate concentrations (ESI) used in these experiments were from 25 to 500 μM. Substrates were incubated with His6-NdmD plus either NdmA-His6 or NdmB-His6 under standard conditions for 15 minutes. At 1, 5, 10, and 15 minutes, samples were removed from the reaction mixtures to quantitate substrate concentrations by HPLC. Plots of substrate concentrations against time were used to determine the initial rates of disappearance of substrates which were linear over 15 minutes. The apparent kinetic parameters were determined from Michaelis-Menten plots of vo against [S] fitted with the equation

NdmA-His6 = target: T2, NdmA-His6 (Pseudomonas putida, UniProt H9N289); assay: Methylxanthine N-demethylase assay and kinetics, NdmA-His6 with His6-NdmD; type: biochemical, Pseudomonas putida CBB5
T2 construct: made in house; host or cells: E. coli BL21(DE3)
T2 sequence (H9N289 1-351): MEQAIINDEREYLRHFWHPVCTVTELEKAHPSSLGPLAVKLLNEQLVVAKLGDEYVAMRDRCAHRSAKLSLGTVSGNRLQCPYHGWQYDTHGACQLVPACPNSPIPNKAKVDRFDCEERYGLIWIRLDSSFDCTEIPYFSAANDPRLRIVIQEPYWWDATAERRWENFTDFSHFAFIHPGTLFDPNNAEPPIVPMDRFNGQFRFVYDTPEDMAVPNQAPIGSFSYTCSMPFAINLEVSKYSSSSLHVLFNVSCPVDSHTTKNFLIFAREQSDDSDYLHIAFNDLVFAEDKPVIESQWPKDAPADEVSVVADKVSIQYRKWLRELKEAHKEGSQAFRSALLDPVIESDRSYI
Description: as §1, §2

[1] = target: T3, N-demethylase (Ndm: NdmA and NdmB subunits) (Pseudomonas putida, UniProt H9N289+H9N290); assay: Methylxanthine N-demethylase activity assay with purified Ndm plus partially purified Ccr; type: biochemical, Pseudomonas putida CBB5; settings: for Products identified: same products at 500 and 200 μM substrate; for Relative N-demethylase activity: relative to paraxanthine; for O-demethylation by Ndm: prolonged incubation
T3 construct: lane 3, natural Ndm purified from P. putida CBB5; made in house; host or cells: purified from the natural strain Pseudomonas putida CBB5 (DEAE, Phenyl and Q Sepharose); not recombinant
T3 sequence (H9N289 1-351): T2 sequence (H9N289 1-351)
T3 sequence (H9N290 1-355): T1 sequence (H9N290 1-355)
Description: Methylxanthine N-demethylase activity assay contained, in 1-mL total volume, 0.5 mM methylxanthine, 1 mM NADH, 50 μM Fe(NH4)2(SO4)2, and an appropriate amount of Ndm (0.08-7.5 mg protein, depending on purity of the protein) in 50 mM KPi buffer. Approximately 4 U of partially purified Ccr was added to reaction mixture when assaying Ndm in Phenyl Sepharose and Q Sepharose eluant-fractions (Ccr was not added to the enzyme reaction mixture when assaying Ndm activity in DEAE Sepharose eluant-fractions because Ccr co-eluted with Ndm). The reaction mixture was incubated at 30° C. with 300 rpm shaking on an incubating microplate shaker (VWR). Periodically, a small aliquot was sampled from the reaction mixture and mixed with equal volume of acetonitrile for quantifying concentrations of methylxanthines and N-demethylated products by HPLC. One unit of N-demethylase activity was defined as the consumption of one μmole methylxanthine per minute. When Ndm was coupled with the reductase and ferredoxin components of naphthalene dioxygenase of Pseudomonas sp. strain 9816 (Haigler & Gibson, 1990a; Haigler & Gibson, 1990b), 30 and 100 μg of the respective proteins were used. Spinach ferredoxin reductase and ferredoxin were also substituted for Ccr as described by Subramanian et al. (1979).
Determination of Kinetic Parameters. Apparent kinetic parameters of Ndm were determined by measuring the initial rate of disappearance (vo) of paraxanthine or 7-methylxanthine in 50 mM KPi buffer (pH 7.5) at 30° C. The paraxanthine and 7-methylxanthine concentrations ([S]) used in these experiments were from 20 to 500 μM. Substrates were incubated with Ndm and Ccr under standard conditions for 15 minutes. At 1, 5, 10, and 15 minutes, samples were removed from the reaction mixtures to quantitate substrate concentrations by HPLC. Plots of substrate concentrations against time were used to determine the initial rates of disappearance of substrates which were linear over 15 minutes. The apparent kinetic parameters were determined from Michaelis-Menten plots of Vo against [S] fitted with the equation
Determination of Oxygen Requirement. Oxygen consumption by Ndm during N-demethylation of paraxanthine was determined in a closed reaction vessel equipped with a Clarke-type oxygen electrode (Digitial Modell 0, Rank Brothers Ltd., Cambridge, England). The electrode was calibrated by using glucose oxidase (Sigma) and glucose for consumption of oxygen. Ndm activity assay was performed at 30° C. in a total volume of 1 ml of air-saturated 50 mM KPi buffer (pH 7.5) with 100 μM paraxanthine, 200 μM NADH, 50 μM Fe(NH4)2(SO4)2, 0.2 mg purified Ndm, and 4 U partially purified Ccr. The reaction was initiated by adding Ndm and partially purified Ccr after equilibration of all other reaction components for 3.3 minutes. After 13 minutes, a 100-μL aliquot was withdrawn from the reaction, immediately mixed with equal volume of acetonitrile to stop the enzyme reaction, and analyzed for N-demethylation product by HPLC. Background oxygen consumption, possibly due to NADH oxidase enzyme activity in the partially purified Ccr, was quantitated in control reactions containing all reaction components except paraxanthine.
Formaldehyde Determination. […] Twenty μL Nash reagent was added to 50 μl Ndm reaction sample plus 50 μl acetonitrile. This mixture was incubated at 51° C. for 12 minutes.

[2] = system: cell extracts prepared from P. putida CBB5; assay: NADH-dependent N-demethylase activity of CBB5 cell extracts; type: biochemical, Pseudomonas putida CBB5; settings: 0.5 mM substrate, 7.2 mg mL^−1 protein
[3] = target: T4, Caffeine dehydrogenase (Cdh) from CBB1 (Pseudomonas sp., UniProt D7REY3); settings: cited from earlier work
T4 sequence (D7REY3 1-791): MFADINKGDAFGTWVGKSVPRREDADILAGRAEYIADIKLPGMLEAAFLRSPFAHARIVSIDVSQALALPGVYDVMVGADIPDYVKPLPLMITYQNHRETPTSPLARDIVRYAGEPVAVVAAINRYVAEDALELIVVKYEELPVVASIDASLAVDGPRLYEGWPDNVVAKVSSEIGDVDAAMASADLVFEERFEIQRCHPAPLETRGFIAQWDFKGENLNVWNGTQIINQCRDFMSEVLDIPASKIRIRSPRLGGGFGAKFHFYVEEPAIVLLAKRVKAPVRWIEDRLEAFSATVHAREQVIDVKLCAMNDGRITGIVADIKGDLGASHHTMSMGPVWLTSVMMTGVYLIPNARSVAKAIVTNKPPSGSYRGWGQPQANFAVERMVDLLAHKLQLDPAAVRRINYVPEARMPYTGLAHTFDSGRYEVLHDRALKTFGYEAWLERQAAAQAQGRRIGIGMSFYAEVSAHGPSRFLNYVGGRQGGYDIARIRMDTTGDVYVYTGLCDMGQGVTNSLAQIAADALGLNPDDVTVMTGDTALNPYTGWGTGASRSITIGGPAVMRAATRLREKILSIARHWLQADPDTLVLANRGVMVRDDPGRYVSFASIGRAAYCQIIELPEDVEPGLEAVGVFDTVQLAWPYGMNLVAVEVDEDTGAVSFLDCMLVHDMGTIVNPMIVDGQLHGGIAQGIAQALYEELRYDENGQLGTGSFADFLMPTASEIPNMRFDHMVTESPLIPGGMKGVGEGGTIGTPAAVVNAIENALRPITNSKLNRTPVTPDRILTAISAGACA
T4 sequence (D7REY4 1-295 partner): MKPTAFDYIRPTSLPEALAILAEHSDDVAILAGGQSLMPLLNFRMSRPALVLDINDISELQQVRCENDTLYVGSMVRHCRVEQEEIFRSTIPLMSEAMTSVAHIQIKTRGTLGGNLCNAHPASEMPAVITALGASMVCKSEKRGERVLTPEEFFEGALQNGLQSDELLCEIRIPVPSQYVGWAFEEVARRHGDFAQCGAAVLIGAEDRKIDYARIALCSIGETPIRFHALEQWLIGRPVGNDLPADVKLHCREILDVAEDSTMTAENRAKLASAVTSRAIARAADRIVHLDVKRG
T4 sequence (D7REY5 1-167 partner): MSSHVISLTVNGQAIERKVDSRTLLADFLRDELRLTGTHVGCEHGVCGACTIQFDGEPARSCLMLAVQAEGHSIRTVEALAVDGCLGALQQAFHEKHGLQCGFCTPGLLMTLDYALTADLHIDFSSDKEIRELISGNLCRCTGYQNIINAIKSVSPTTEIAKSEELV

[4] = 100 μM paraxanthine, 0.2 mg Ndm, 4 U Ccr, after 13 minutes

Cn1c(=O)[nH]c2nc[nH]c2c1=O [1-methylxanthine]
N-demethylase activity (NdmB-His6): no activity | Km (NdmB-His6; NdmB-His6): ∞ | catalytic efficiency relative to theophylline (NdmA-His6; NdmA): two orders of magnitude lower | Product (NdmA-His6; NdmA-His6): Xanthine

Cn1c(=O)[nH]c(=O)c2[nH]cnc21 [3-Methylxanthine, 3-methylxanthine]
Products identified [1]: xanthine | Relative N-demethylase activity ([1]; substrate conc. 200 μM): 68.9 ± 2.6 | Relative N-demethylase activity ([1]; substrate conc. 500 μM): 55.2 ± 6.0 | Product (NdmB-His6; NdmB-His6): Xanthine | N-demethylase activity (NdmA-His6; NdmA): inactive | Km (NdmA-His6; NdmA-His6, 30° C., pH 7.5, ∞ where no activity): ∞

Cn1c(=O)[nH]c2ncn(C)c2c1=O [Paraxanthine, 1,7-dimethylxanthine]
oxygen consumed during N-demethylation [1, 4]: 79.5 µM | paraxanthine N-demethylated [1, 4]: 60.2 µM | Products identified [1]: xanthine and 7-methylxanthine, | Relative N-demethylase activity ([1]; substrate conc. 200 μM): 100.0 ± 3.7 | Relative N-demethylase activity ([1]; substrate conc. 500 μM): 100.0 ± 3.1 | time to complete utilization ([2]; 0.5 mM NADH): about 20 minutes | N-demethylation by NdmC fraction (NdmC): not N-demethylated | N-demethylase activity (NdmB-His6): no activity | Km (NdmB-His6; NdmB-His6): ∞

Cn1c(=O)c2[nH]cnc2n(C)c1=O [Theophylline, 1,3-dimethylxanthine]
Products identified [1]: 1- & 3-methylxanthine, and xanthine | Relative N-demethylase activity ([1]; substrate conc. 200 μM): 14.2 ± 1.6 | Relative N-demethylase activity ([1]; substrate conc. 500 μM): 17.6 ± 1.0 | activity of Cdh [3]: no activity | activity of Cdh ([3]; substrate specificity study): 5% | degradation rate compared with paraxanthine [2]: significantly slower

COc1cc(C(=O)O)ccc1O [vanillate]
O-demethylation by Ndm [1]: did not catalyze O-demethylation

COc1cc(C=O)ccc1O [vanillin]
O-demethylation by Ndm [1]: did not catalyze O-demethylation

O=c1[nH]c(=O)c2[nH]cnc2[nH]1 [xanthine]
product formed from paraxanthine ([1]; 7.4 mU / 7.4 units of Ndm, 90 minutes): 193.7 ± 4.0 µM and 193.7 ± 14.0 µM | N-demethylation product present ([1]; from paraxanthine, after 13 minutes): ~20.3 µM | activity of Cdh [3]: no activity and none
